Bridge positions count the residues as written; N and C are the ends. Square brackets hold non-standard residues; d marks the D form. Peptide text beside a SMILES is read from it. N(1-adamantyl)Gly = O=C(O)CNC12CC3CC(CC(C3)C1)C2; Cha = N[C@@H](CC1CCCCC1)C(=O)O; S5 = C=CCCC[C@](C)(N)C(=O)O; PEG2 = NCCOCCOCCC(=O)O; PEG1 = NCCOCCC(=O)O; Ahx = NCCCCCC(=O)O; Ava = NCCCCC(=O)O; GABA = NCCCC(=O)O
Legend:
[1] = biological target: T1, SRC-1 in MDA-MB-231 cells (Homo sapiens, UniProt Q15788); test: Immunoblot analysis of cellular SRC-1 levels (SRC-1 degradation); format: cell-based; conditions: MDA-MB-231 cells, 18 h; for SRC-1 (%): normalized to GAPDH and DMSO controls
T1 construct: endogenous in cells; host or cells: MDA-MB-231
Method: MDA-MB-231 and HEK293T cells were cultured in a medium containing Dulbecco’s modified eagle medium (DMEM) supplemented with 1% penicillin–streptomycin (PS) and 10% FBS with 5% CO2 at 37 °C.
MDA-MB-231 cells were seeded into 6-well pates (Corning, 3506) at a density of 6 × 10^5 cell per well. After incubation at 37 °C for 24 h, cells were treated with synthesized compounds in Opti-MEM medium for 12, 18, or 24 h. Cells were washed twice with cold Dulbecco’s phosphate-buffered saline (DPBS) prior to cell lysis using a cell lysis buffer (1% Triton X-100, 150 mM NaCl, 50 mM Tris-HCl pH 7.6, 0.1% SDS, 0.5% sodium deoxycholate, and 1 × protease inhibitor cocktail) on ice. Cell lysates were centrifuged at 13,000 rpm at 4 °C for 15 min. The supernatant was collected, and protein concentration was determined using Pierce^TM 660nm protein assay. A 6 × SDS loading buffer was added to the cell lysate and incubated at 95 °C for 5 min. The same amount of protein was subjected to SDS-PAGE and transferred to PVDF membranes. After blocking membranes with 5% skim milk in TBST (Tris-buffered saline with 0.05% Tween 20), membranes were incubated with a primary antibody at 4 °C overnight. Membranes were then incubated with HRP-linked secondary antibody at rt for 1 h and developed with Pico ECL solution. In MG-132 and 17-AAG treatment experiments, MDA-MB-231 cells were cotreated with synthesized compounds and MG-132 (5 μM) or 17-AAG (1 μM) at 37 °C for 18 h.

[2] = Circular dichroism (CD), calculated helicity; format: physicochemical; conditions: 50 μM peptide in 30% PBS (pH 7.4) and 70% acetonitrile, calculated from CD spectra
Method: Lyophilized compounds (YL2 and YL2-HyT1 through YL2-HyT6) were dissolved in 30% PBS (pH 7.4) and 70% acetonitrile solution to a final concentration of 50 μM. CD spectra were measured with a Jasco J-815 CD spectropolarimeter using a quartz cuvette (2 mm path length). These spectra were averages of five successive accumulations with a scan rate of 100 nm/min. Raw data were converted in terms of per-residue molar ellipticity (deg·cm^2·dmol^−1·residue^−1) as calculated per mole of amide groups present and normalized by the molar concentration of peptides. Smoothing and correction of background spectra were performed with Origin Pro 8.0 (OriginLab Corporation, Northampton, MA, USA). Then α-helical propensities of YL2 and YL2-HyT1 through YL2-HyT6 were calculated as previously reported.

[3] = biological target: T2, PAS-B domain of human SRC-1 (residues 257–385) (Homo sapiens, UniProt Q15788); test: Competitive fluorescence polarization (FP) assay, fluorescein-labeled STAT-6 peptide binding to SRC-1; conditions: 100 nM fluorescein-labeled 15-mer STAT-6 peptide, 1 μM PAS-B domain of SRC-1, HEPES pH 7.4, SD from three independent experiments
T2 construct: PAS-B domain of human SRC-1 (residues 257–385); His6; made in house; host or cells: Rosetta E. coli
T2 sequence (Q15788 257-385): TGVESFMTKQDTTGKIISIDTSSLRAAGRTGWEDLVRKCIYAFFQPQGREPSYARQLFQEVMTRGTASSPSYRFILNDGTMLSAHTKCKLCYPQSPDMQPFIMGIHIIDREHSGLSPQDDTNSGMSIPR
Method: A plasmid expressing the PAS-B domain of human SRC-1 (residues 257–385) tagged with His6 was provided by John A. Robinson (University of Zürich at Switzerland). It was transformed into Rosetta E. coli cells. SRC-1 protein purification was performed as described previously.
After incubating 100 nM of fluorescein-labeled 15-mer STAT-6 peptide with 1 μM of PAS-B domain of SRC-1 in a binding buffer (50 mM HEPES pH 7.4, 150 mM NaCl, 3.4 mM EDTA, and 0.01% Tween 20) in a black Greiner 384-well plate for 30 min, indicated concentrations of YL2 and YL2-HyT1 through YL2-HyT6 were added to each well. After incubation for another 1.5 h, fluorescence polarization was measured on a Tecan Infinite F200 Pro microplate reader (excitation wavelength: 485 nm, emission wavelength: 535 nm). The Ki values of the compounds in the competition assay were determined using the following equation [43]. (1) Ki=[I]50/[L]50/KD+[P]0/KD+1 where [I]50 is the concentration of the free inhibitor at 50% inhibition, KD is the dissociation constant of the protein–ligand complex, [L]50 is the concentration of the free labeled ligand at 50% inhibition, and [P]0 is the concentration of the free protein at 0% inhibition.

[4] = set-up: method as in PMID 29090910; conditions: compared with the corresponding native peptide sequence; cited from earlier work
[5] = test system: CSF-1 mRNA in MDA-MB-231 cells; test: RT-qPCR of CSF-1 mRNA; format: cell-based, human; conditions: 18 h, RT-qPCR normalized to 18S
Method: (§1) Quantitative real-time PCR was performed for CSF-1, E-cadherin, and 18S (as a reference gene) mRNAs. MDA-MB-231 cells (1.2 × 10^5 cells/well) were seeded into a 12-well plate and incubated at 37 °C with 5% CO2 for 24 h. These cells were treated with indicated compounds (YL2, adamantane, ND1-YL2, or YL2-HyT6) for 18 h in Opti-MEM medium. After cells were washed with cold DPBS, mRNAs were isolated from these cells using an AccuPrep Universal RNA extraction kit (Bioneer, Daejeon, Korea). Then 1.5 µg of mRNAs were reverse-transcribed using AccuPower RocketScript Cycle RT PreMix (Bioneer) to generate complementary DNAs. RT-qPCR for CSF-1, E-cadherin, and 18S was performed with a StepOnePlus Real-Time PCR System (Applied Biosystems, Waltham, MA, USA) and SYBR Green mix (Applied Biosystems) according to the manufacturer’s instructions with gene-specific primers (Table 1).

SRC-1 [6] = conditions: stapled peptide lacking the hydrophobic tag; cited from earlier work
Method: Cellular levels of SRC-1 were analyzed at various time points (12, 18, and 24 h) by immunoblotting.

[7] = set-up: method as in PMID 29090910; conditions: cited from earlier work
[8] = test system: E-cadherin mRNA in MDA-MB-231 cells; test: RT-qPCR of E-cadherin mRNA; format: cell-based, human; conditions: 18 h, RT-qPCR normalized to 18S
Method: as §1

SRC-1 [9] = conditions: in vitro binding activity; cited from earlier work
Excerpt: The SRC-1 degrader ND1-YL2 is a chimeric molecule composed of a ligand (YL2) for SRC-1 [31] and a UBR E3 ligase binder (Figure 2). […] ND1-YL2 was generated by conjugating a tetrapeptide RLAA, the N-degron peptide as a binder for UBR. Thus, this bifunctional molecule enables the recruitment of SRC-1 to UBR protein, thereby promoting the formation of a ternary complex for polyubiquitination and proteasomal degradation of SRC-1.

T1 sequence (Q15788 whole entry): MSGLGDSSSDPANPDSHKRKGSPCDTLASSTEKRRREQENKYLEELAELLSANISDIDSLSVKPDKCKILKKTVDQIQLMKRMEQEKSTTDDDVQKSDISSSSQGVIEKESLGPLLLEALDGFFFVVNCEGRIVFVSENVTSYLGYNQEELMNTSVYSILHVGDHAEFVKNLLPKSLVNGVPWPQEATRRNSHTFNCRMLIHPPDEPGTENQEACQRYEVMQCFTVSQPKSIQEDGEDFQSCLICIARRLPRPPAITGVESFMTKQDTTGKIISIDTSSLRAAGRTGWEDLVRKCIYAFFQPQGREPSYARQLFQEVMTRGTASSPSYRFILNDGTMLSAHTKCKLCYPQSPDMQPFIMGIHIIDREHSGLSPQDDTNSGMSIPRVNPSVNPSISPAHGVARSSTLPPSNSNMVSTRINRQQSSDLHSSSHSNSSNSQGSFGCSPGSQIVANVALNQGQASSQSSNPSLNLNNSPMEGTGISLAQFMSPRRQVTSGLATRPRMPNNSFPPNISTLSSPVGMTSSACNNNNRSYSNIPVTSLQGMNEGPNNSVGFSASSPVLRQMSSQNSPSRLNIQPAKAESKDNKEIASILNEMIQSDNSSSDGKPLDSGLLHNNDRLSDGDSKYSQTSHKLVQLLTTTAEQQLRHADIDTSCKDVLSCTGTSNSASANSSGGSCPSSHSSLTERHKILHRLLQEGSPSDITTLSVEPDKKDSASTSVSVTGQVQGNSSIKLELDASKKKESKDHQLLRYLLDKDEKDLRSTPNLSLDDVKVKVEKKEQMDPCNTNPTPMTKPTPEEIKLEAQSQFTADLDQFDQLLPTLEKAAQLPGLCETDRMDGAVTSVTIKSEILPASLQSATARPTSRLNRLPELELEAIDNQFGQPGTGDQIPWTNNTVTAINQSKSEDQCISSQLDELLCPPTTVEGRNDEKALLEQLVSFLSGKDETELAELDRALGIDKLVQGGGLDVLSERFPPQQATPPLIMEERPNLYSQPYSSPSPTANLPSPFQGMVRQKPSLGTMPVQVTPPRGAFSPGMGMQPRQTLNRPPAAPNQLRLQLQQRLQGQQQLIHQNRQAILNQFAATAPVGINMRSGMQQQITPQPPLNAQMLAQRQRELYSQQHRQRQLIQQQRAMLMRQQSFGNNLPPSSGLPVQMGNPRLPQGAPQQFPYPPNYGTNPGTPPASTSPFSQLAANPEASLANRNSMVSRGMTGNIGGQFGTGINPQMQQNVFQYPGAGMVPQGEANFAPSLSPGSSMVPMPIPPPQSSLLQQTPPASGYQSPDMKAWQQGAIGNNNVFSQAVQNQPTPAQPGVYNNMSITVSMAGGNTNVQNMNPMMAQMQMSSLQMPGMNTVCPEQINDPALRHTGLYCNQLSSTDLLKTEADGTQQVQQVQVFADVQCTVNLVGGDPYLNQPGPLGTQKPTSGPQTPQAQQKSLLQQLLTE

| SMILES | SRC-1 (%) ([1]; 10 μM compound) | SRC-1 (%) ([1]; 20 μM compound) | SRC-1 (%) ([1]; 50 μM compound) | Helicity (%) [2] | Ki [3] | Proteolytic resistance [4] | CSF-1 mRNA expression level [5] | SRC-1 degradation (SRC-1 [6]) | Cell penetration ability [7] | E-cadherin mRNA expression level [8] | Ki (SRC-1 [9]) | SRC-1 degradation (immunoblot) ([1]; 20 μM) |
| --- | --- | --- | --- | --- | --- | --- | --- | --- | --- | --- | --- | --- |
| CC(C)C[C@H](NC(=O)CCCNC(=O)CNC12CC3CC(CC(C3)C1)C2)C(=O)N[C@@H](CC(C)C)C(=O)N1CCC[C@H]1C(=O)N1CCC[C@H]1C(=O)N[C@H](C(=O)N[C@@H](CCC(=O)O)C(=O)N[C@@H](CCC(N)=O)C(=O)N[C@@H](CC(=O)O)C(=O)N[C@@H](CC(C)C)C(=O)N[C@@]1(C)CCC/C=C\CCC[C@@](C)(C(=O)N[C@@H](Cc2ccc(O)cc2)C(N)=O)NC(=O)[C@H](CC2CCCCC2)NC(=O)[C@H](CC(C)C)NC(=O)[C@H](CCCCN)NC1=O)[C@@H](C)O [YL2-HyT1] (H-[N(1-adamantyl)Gly][GABA]LLPPTEQDL[S5]KL[Cha][S5]Y-NH2; staple (Z) 12-16; C-terminus assumed) | 98% | 99% | 91% | 24.1% | 1080 ± 32 nM | – | – | – | – | – | – | – |
| CC(C)C[C@H](NC(=O)CCCCNC(=O)CNC12CC3CC(CC(C3)C1)C2)C(=O)N[C@@H](CC(C)C)C(=O)N1CCC[C@H]1C(=O)N1CCC[C@H]1C(=O)N[C@H](C(=O)N[C@@H](CCC(=O)O)C(=O)N[C@@H](CCC(N)=O)C(=O)N[C@@H](CC(=O)O)C(=O)N[C@@H](CC(C)C)C(=O)N[C@@]1(C)CCC/C=C\CCC[C@@](C)(C(=O)N[C@@H](Cc2ccc(O)cc2)C(N)=O)NC(=O)[C@H](CC2CCCCC2)NC(=O)[C@H](CC(C)C)NC(=O)[C@H](CCCCN)NC1=O)[C@@H](C)O [YL2-HyT2] (H-[N(1-adamantyl)Gly][Ava]LLPPTEQDL[S5]KL[Cha][S5]Y-NH2; staple (Z) 12-16; C-terminus assumed) | 92% | 85% | 66% | 18.7% | 1520 ± 87 nM | – | – | – | – | – | – | – |
| CC(C)C[C@H](NC(=O)CCCCCNC(=O)CNC12CC3CC(CC(C3)C1)C2)C(=O)N[C@@H](CC(C)C)C(=O)N1CCC[C@H]1C(=O)N1CCC[C@H]1C(=O)N[C@H](C(=O)N[C@@H](CCC(=O)O)C(=O)N[C@@H](CCC(N)=O)C(=O)N[C@@H](CC(=O)O)C(=O)N[C@@H](CC(C)C)C(=O)N[C@@]1(C)CCC/C=C\CCC[C@@](C)(C(=O)N[C@@H](Cc2ccc(O)cc2)C(N)=O)NC(=O)[C@H](CC2CCCCC2)NC(=O)[C@H](CC(C)C)NC(=O)[C@H](CCCCN)NC1=O)[C@@H](C)O [YL2-HyT3] (H-[N(1-adamantyl)Gly][Ahx]LLPPTEQDL[S5]KL[Cha][S5]Y-NH2; staple (Z) 12-16; C-terminus assumed) | 73% | 58% | 50% | 24.9% | 681 ± 54 nM | – | – | – | – | – | – | – |
| CC(C)C[C@H](NC(=O)CCOCCNC(=O)CNC12CC3CC(CC(C3)C1)C2)C(=O)N[C@@H](CC(C)C)C(=O)N1CCC[C@H]1C(=O)N1CCC[C@H]1C(=O)N[C@H](C(=O)N[C@@H](CCC(=O)O)C(=O)N[C@@H](CCC(N)=O)C(=O)N[C@@H](CC(=O)O)C(=O)N[C@@H](CC(C)C)C(=O)N[C@@]1(C)CCC/C=C\CCC[C@@](C)(C(=O)N[C@@H](Cc2ccc(O)cc2)C(N)=O)NC(=O)[C@H](CC2CCCCC2)NC(=O)[C@H](CC(C)C)NC(=O)[C@H](CCCCN)NC1=O)[C@@H](C)O [YL2-HyT4] (H-[N(1-adamantyl)Gly][PEG1]LLPPTEQDL[S5]KL[Cha][S5]Y-NH2; staple (Z) 12-16; C-terminus assumed) | 83% | 53% | 70% | 29.9% | 484 ± 52 nM | – | – | – | – | – | – | – |
| CC(C)C[C@H](NC(=O)CCOCCOCCNC(=O)CNC12CC3CC(CC(C3)C1)C2)C(=O)N[C@@H](CC(C)C)C(=O)N1CCC[C@H]1C(=O)N1CCC[C@H]1C(=O)N[C@H](C(=O)N[C@@H](CCC(=O)O)C(=O)N[C@@H](CCC(N)=O)C(=O)N[C@@H](CC(=O)O)C(=O)N[C@@H](CC(C)C)C(=O)N[C@@]1(C)CCC/C=C\CCC[C@@](C)(C(=O)N[C@@H](Cc2ccc(O)cc2)C(N)=O)NC(=O)[C@H](CC2CCCCC2)NC(=O)[C@H](CC(C)C)NC(=O)[C@H](CCCCN)NC1=O)[C@@H](C)O [YL2-HyT5] (H-[N(1-adamantyl)Gly][PEG2]LLPPTEQDL[S5]KL[Cha][S5]Y-NH2; staple (Z) 12-16; C-terminus assumed) | 78% | 95% | 57% | 27.2% | 549 ± 17 nM | – | – | – | – | – | – | – |
| CC(C)C[C@@H]1NC(=O)[C@H](CCCCN)NC(=O)[C@@](C)(NC(=O)[C@H](CC(C)C)NC(=O)[C@H](CC(=O)O)NC(=O)[C@H](CCC(N)=O)NC(=O)[C@H](CCC(=O)O)NC(=O)[C@@H](NC(=O)[C@@H]2CCCN2C(=O)[C@@H]2CCCN2C(=O)[C@H](CC(C)C)NC(=O)[C@@H](N)CC(C)C)[C@@H](C)O)CCC/C=C\CCC[C@@](C)(C(=O)N[C@@H](Cc2ccc(O)cc2)C(N)=O)NC(=O)[C@H](CC2CCCCC2)NC1=O [YL2] (H-LLPPTEQDL[S5]KL[Cha][S5]Y-NH2; staple (Z) 10-14; N-terminus assumed) | – | – | – | 32.5% | – | increased proteolytic resistance | no effect | unable to induce SRC-1 degradation | reasonable cell penetration ability | no effect | 140 nM | – |
| C1C2CC3CC1CC(C2)C3 [adamantane] | – | – | – | – | – | – | no effect | – | – | no effect | – | no effect |

From PMC8232704, “Hydrophobic Tagging-Mediated Degradation of Transcription Coactivator SRC-1” (International Journal of Molecular Sciences, 2021)
